{"source": "patent US4438115A", "about": "“Compositions and methods for treating diseases in circulatory organs” (Chugai Seiyaku Kabushiki Kaisha, priority 1980, dated 1984)", "key": {"systemic blood pressure [1]": {"test_system": "systemic blood pressure", "test": "Reduction of systemic blood pressure (Experiment 2(a))", "assay_type": "in vivo, beagle (anesthetized)", "details": "intravenous; for inhibition in vivo at 0.025 mg/kg: Canis lupus familiaris, Table 2, read-out: Average percent reduction in blood pressure; for Average low pressure retention time: Table 3", "description": "A beagle was anesthetized by intravenous injection of sodium pentobarbital and under artificial respiration an incision was made in the chest.\n1. Systemic blood pressure (SBP): The SBP was measured by a pressure transducer that was connected to a catheter inserted into the right femoral artery."}, "heart rate": {"test_system": "heart rate", "test": "Change in heart rate (Experiment 2(b))", "assay_type": "in vivo, beagle (anesthetized)", "details": "for Percent change in heart rate: Table 4, Experiment 2; for effect on heart rate (time course): in words", "description": "A beagle was anesthetized by intravenous injection of sodium pentobarbital and under artificial respiration an incision was made in the chest. The various actions of Compounds 1, 2, 3, 5 and 7 of the present invention were checked by the following procedures:\n2. Heart rate (HR): The HR was measured by a cardiotachometer using the pulse wave of blood pressure as trigger pulse.\nAs for the compounds of the present invention, a temporary increase was followed by a gradual decrease which started almost at the same time when a second phase reduction in blood pressure occurred (see FIG. 1)."}, "systemic blood pressure [2]": {"test_system": "systemic blood pressure", "test": "Neurogenic hypertension by artery obstruction/stricture (Experiment 3)", "assay_type": "in vivo, beagle (hypertensive)", "details": "intravenous, 25 μg/Kg; FIG. 2, FIG. 3", "description": "Hypertension was induced in a beagle by exciting the sympathetic nerve due to an obstruction of the bilateral vertebral artery and right common carotid artery, as well as a stricture of the left common carotid artery. The beagle was treated intravenously with 25 μg/Kg of Compounds 1 and 2."}, "[3]": {"test": "Acute toxicity, oral administration to rats for fourteen consecutive days", "assay_type": "in vivo, male SD strain rats", "details": "400 mg/Kg, as hydrochloride, male SD rats", "description": "The acute toxicity of Compounds Preparation Nos. 1 to 15 was examined by the oral administration of them to male SD strain rats (five rats per group) for fourteen consecutive days. All compounds had low toxicity and none supressed weight gain. No rat died upon administration of Compound 1 or 2 (both as hydrochloride) in a dose of 400 mg/Kg."}, "blood pressure": {"test_system": "blood pressure", "test": "Blood pressure in unanesthetized SHR rats (Experiment 4)", "assay_type": "in vivo", "details": "oral, 10 mg/Kg; for blood pressure after dosing: 180±5.0 mmHg just before administration", "description": "Unanesthetized SHR rats (five rats per group) were administered orally 10 mg/Kg of Compound 1."}}, "note": "Structures can show the parent of a compound that is named as a salt.", "data": [{"molecule": "NNc1nncc2ccccc12", "note": "[A, hydralazine hydrochloride, reference compound]", "values": [{"measurement": "significant reduction in blood pressure", "setting": "systemic blood pressure [1]; 25 μg/Kg, in words", "value": "did not exhibit significant reduction in blood pressure"}]}, {"molecule": "COc1ccccc1N1CCN(CCCCCO)CC1", "note": "[B, reference compound]", "values": [{"measurement": "inhibition in vivo at 0.025 mg/kg", "setting": "systemic blood pressure [1]; 25 μg/kg", "value": 16.1, "unit": "%"}, {"measurement": "Average low pressure retention time", "setting": "systemic blood pressure [1]; 25 μg/kg", "value": 15.0, "unit": "min"}, {"measurement": "Percent change in heart rate", "setting": "heart rate", "value": 9.9, "unit": "%"}]}, {"molecule": "COc1ccccc1N1CCN(CCCCCCO)CC1", "note": "[C, reference compound]", "values": [{"measurement": "inhibition in vivo at 0.025 mg/kg", "setting": "systemic blood pressure [1]; 25 μg/kg", "value": 12.6, "unit": "%"}, {"measurement": "Average low pressure retention time", "setting": "systemic blood pressure [1]; 25 μg/kg", "value": 14.4, "unit": "min"}, {"measurement": "Percent change in heart rate", "setting": "heart rate", "value": 8.1, "unit": "%"}]}, {"molecule": "CCOC(=O)CCCCCCN1CCN(c2ccccc2OC)CC1", "note": "[Compound 1, 1-(6-ethoxycarbonylhexyl)-4-(o-methoxyphenyl)piperazine]", "values": [{"measurement": "extension of low pressure retention time, hypertensive vs normal beagle", "setting": "systemic blood pressure [2]", "value": "more effective"}, {"measurement": "reduction of heart rate, hypertensive vs normal beagle", "setting": "systemic blood pressure [2]", "value": "more effective"}, {"measurement": "reduction of systemic blood pressure, hypertensive vs normal beagle", "setting": "systemic blood pressure [2]", "value": "more effective"}, {"measurement": "inhibition in vivo at 0.025 mg/kg", "setting": "systemic blood pressure [1]; 25 μg/kg", "value": 25.5, "unit": "%"}, {"measurement": "Average low pressure retention time", "setting": "systemic blood pressure [1]; 25 μg/kg", "value": 47.3, "unit": "min"}, {"measurement": "change in systemic blood pressure (time course, FIG. 1)", "setting": "systemic blood pressure [1]; 25 μg/kg, in words", "value": "the initial temporary reduction was followed by a reduction in the second phase, and the systemic blood pressure was maintained low thereafter"}, {"measurement": "period of maintained low blood pressure compared with the others", "setting": "systemic blood pressure [1]; 25 μg/kg, in words", "value": "maintained the blood pressure at low level for a longer period than did the others"}, {"measurement": "deaths upon administration", "setting": "[3]", "value": "No rat died"}, {"measurement": "Percent change in heart rate", "setting": "heart rate", "value": -9.6, "unit": "%"}, {"measurement": "blood pressure after dosing", "setting": "blood pressure; 1 h", "value": "127±11.6", "unit": "mmHg"}, {"measurement": "blood pressure after dosing", "setting": "blood pressure; 2 h", "value": "137±7.6", "unit": "mmHg"}, {"measurement": "duration of reduced blood pressure", "setting": "blood pressure; in words", "value": "maintained at the reduced level for a satisfactorily long time"}]}, {"molecule": "CCOC(=O)CCCCCN1CCN(c2ccccc2OC)CC1", "note": "[Compound 2, 1-(5-ethoxycarbonylpentyl)-4-(o-methoxyphenyl)piperazine]", "values": [{"measurement": "extension of low pressure retention time, hypertensive vs normal beagle", "setting": "systemic blood pressure [2]", "value": "more effective"}, {"measurement": "reduction of heart rate, hypertensive vs normal beagle", "setting": "systemic blood pressure [2]", "value": "more effective"}, {"measurement": "reduction of systemic blood pressure, hypertensive vs normal beagle", "setting": "systemic blood pressure [2]", "value": "more effective"}, {"measurement": "inhibition in vivo at 0.025 mg/kg", "setting": "systemic blood pressure [1]; 25 μg/kg", "value": 22.4, "unit": "%"}, {"measurement": "Average low pressure retention time", "setting": "systemic blood pressure [1]; 25 μg/kg", "value": 20.0, "unit": "min"}, {"measurement": "change in systemic blood pressure (time course, FIG. 1)", "setting": "systemic blood pressure [1]; 25 μg/kg, in words", "value": "the initial temporary reduction was followed by a reduction in the second phase, and the systemic blood pressure was maintained low thereafter"}, {"measurement": "deaths upon administration", "setting": "[3]", "value": "No rat died"}, {"measurement": "Percent change in heart rate", "setting": "heart rate", "value": -1.6, "unit": "%"}]}, {"molecule": "CCOC(=O)CCCCCCN1CCN(c2ccccc2OC(C)C)CC1", "note": "[Compound 3, 1-(6-ethoxycarbonylhexyl)-4-(o-isopropyloxyphenyl)piperazine]", "values": [{"measurement": "inhibition in vivo at 0.025 mg/kg", "setting": "systemic blood pressure [1]; 25 μg/kg", "value": 22.1, "unit": "%"}, {"measurement": "Average low pressure retention time", "setting": "systemic blood pressure [1]; 25 μg/kg", "value": 22.4, "unit": "min"}, {"measurement": "Percent change in heart rate", "setting": "heart rate", "value": -4.0, "unit": "%"}]}, {"molecule": "COC(=O)CCCCCCN1CCN(c2ccccc2OC)CC1", "note": "[Compound 5, 1-(6-methoxycarbonylhexyl)-4-(o-methoxyphenyl)piperazine]", "values": [{"measurement": "inhibition in vivo at 0.025 mg/kg", "setting": "systemic blood pressure [1]; 25 μg/kg", "value": 23.1, "unit": "%"}, {"measurement": "Average low pressure retention time", "setting": "systemic blood pressure [1]; 25 μg/kg", "value": 18.6, "unit": "min"}, {"measurement": "Percent change in heart rate", "setting": "heart rate", "value": -2.2, "unit": "%"}]}, {"molecule": "CCOC(=O)CCCCN1CCN(c2ccccc2OC)CC1", "note": "[Compound 7, 1-(4-ethoxycarbonylbutyl)-4-(o-methoxyphenyl)piperazine]", "values": [{"measurement": "inhibition in vivo at 0.025 mg/kg", "setting": "systemic blood pressure [1]; 25 μg/kg", "value": 19.1, "unit": "%"}, {"measurement": "Average low pressure retention time", "setting": "systemic blood pressure [1]; 25 μg/kg", "value": 13.4, "unit": "min"}, {"measurement": "change in systemic blood pressure (time course, FIG. 1)", "setting": "systemic blood pressure [1]; 25 μg/kg, in words", "value": "the initial temporary reduction was followed by a reduction in the second phase, and the systemic blood pressure was maintained low thereafter"}, {"measurement": "Percent change in heart rate", "setting": "heart rate", "value": 13.2, "unit": "%"}]}, {"molecule": "COc1ccccc1N1CCN(CCCCCCCO)CC1", "note": "[D, reference compound]", "values": [{"measurement": "inhibition in vivo at 0.025 mg/kg", "setting": "systemic blood pressure [1]; 25 μg/kg", "value": 14.3, "unit": "%"}, {"measurement": "Average low pressure retention time", "setting": "systemic blood pressure [1]; 25 μg/kg", "value": 22.5, "unit": "min"}, {"measurement": "Percent change in heart rate", "setting": "heart rate", "value": -9.1, "unit": "%"}]}, {"molecule": "CCOC(=O)CCN1CCN(c2ccccc2OC)CC1", "note": "[E, reference compound]", "values": [{"measurement": "inhibition in vivo at 0.025 mg/kg", "setting": "systemic blood pressure [1]; 25 μg/kg", "value": 15.1, "unit": "%"}, {"measurement": "Average low pressure retention time", "setting": "systemic blood pressure [1]; 25 μg/kg", "value": 6.8, "unit": "min"}, {"measurement": "change in systemic blood pressure (time course, FIG. 1)", "setting": "systemic blood pressure [1]; 25 μg/kg, in words", "value": "only temporary"}, {"measurement": "Percent change in heart rate", "setting": "heart rate", "value": 16.8, "unit": "%"}, {"measurement": "effect on heart rate (time course)", "setting": "heart rate", "value": "first increased the heart rate and thereafter the increased heart rate gradually returned to the normal level"}]}, {"molecule": "CCOC(=O)CCCN1CCN(c2ccccc2OC)CC1", "note": "[F, reference compound]", "values": [{"measurement": "inhibition in vivo at 0.025 mg/kg", "setting": "systemic blood pressure [1]; 25 μg/kg", "value": 15.2, "unit": "%"}, {"measurement": "Average low pressure retention time", "setting": "systemic blood pressure [1]; 25 μg/kg", "value": 8.8, "unit": "min"}, {"measurement": "change in systemic blood pressure (time course, FIG. 1)", "setting": "systemic blood pressure [1]; 25 μg/kg, in words", "value": "only temporary"}, {"measurement": "Percent change in heart rate", "setting": "heart rate", "value": 11.2, "unit": "%"}, {"measurement": "effect on heart rate (time course)", "setting": "heart rate", "value": "first increased the heart rate and thereafter the increased heart rate gradually returned to the normal level"}]}]}
